This is an account of results in patent EP0109623A1, “Phenyl-propanol amines, their preparation and use” (BASF Aktiengesellschaft, priority 1982, dated 1984).

A word on the IC50: it is the concentration needed to halve the response being measured.

One test addresses Noradrenalin-Aufnahme (Rattus norvegicus, UniProt Q9WTR4). The experiment in a line: Inhibition of 3H-noradrenaline uptake in rat brain synaptosomes (hippocampus). It counts as biochemical, Ratte. Particulars: for IC50: rat hippocampus synaptosomes, 3H-Noradrenalin ca. 10 nM, 37°C, read-out: Hemmung der Neurotransmitter-Aufnahme in Synaptosomen Noradrenalin IC50; for absolute Wirkstärke bei der Hemmung der Noradrenalin-Aufnahme: potency relative to Imipramin. An excerpt:
(§1) Als Wirkungsmechanismus einer Gruppe therapeutisch vielfach genutzter Antidepressiva (z.B. tricyclische Antidepressiva) ist eine Hemmung der neuronalen Aufnahme von Transmittersubstanzen (Noradrenalin und/oder Serotonin) anzusehen. Diese Eigenschaft wird in biologischen Testmodellen zur Charakterisierung von potentiellen Antidepressiva verwendet. Es wurde folgende Methodik eingesetzt: • Hemmung der Neurotransmitter-Aufnahme in Rattenhirn-Synaptosomen
(§2) Hippocampus und Cortex aus Rattenhirn wurden präpariert und in 0,32 M Sucrose-Lösung homogenisiert. Durch differentielle Zentrifugation wurden Synaptosomen erhalten, die in Pufferlösung suspendiert wurden. Die Synaptosomen sind in der Lage, aus dem umgebenden Medium zugefügte Neurotransmittersubstanzen (z.B. Noradrenalin oder Serotonin) aktiv aufzunehmen. Dieser Vorgang ist durch Aufnahme-Hemmer konzentrationsabhängig antagonisierbar. Die Synaptosomen wurden mit den Testsubstanzen in verschiedenen Konzentrationen versetzt und anschließend mit ^3H-Noradrenalin (Hippocampus) bzw. ^3H-Serotonin (Cortex) bei 37°C inkubiert. Die Substratkonzentration betrug ca. 10 nM. Nach Stoppen der Aufnahme durch Verdünnen mit eisgekühlter Pufferlösung wurden die Synaptosomen i abzentrifugiert und die ^3H-Aktivität im Sediment gemessen. Der Blindwert wird durch Inkubation bei 0°C ermittelt.
(§3) Aus den bei verschiedenen Inhibitor-Konzentrationen gegen Kontrolle ermittelten Hemmwerten wurde durch lineare Regression nach logit-log-Transformation die mittlere Hemmkonzentration (ICso) berechnet.

The target in a further test is T1, Serotonin-Aufnahme (Rattus norvegicus, UniProt P31652).
T1 construct: Durch differentielle Zentrifugation wurden Synaptosomen erhalten; from tissue; host or cells: rat brain cortex synaptosomes
The experiment in a line: Inhibition of 3H-serotonin uptake in rat brain synaptosomes (cortex). Format: biochemical, Ratte.
From the text: as §1, §2, §3

[1] abbreviates: rat cortex synaptosomes, 3H-Serotonin ca. 10 nM, 37°C, read-out: Hemmung der Neurotransmitter-Aufnahme in Synaptosomen Serotonin IC50.

Where a name gives a salt, the structure may show the parent alone. Read-outs that look alike come from different tables or passages of the source.

Noradrenalin-Aufnahme, sequence (Q9WTR4 1-597): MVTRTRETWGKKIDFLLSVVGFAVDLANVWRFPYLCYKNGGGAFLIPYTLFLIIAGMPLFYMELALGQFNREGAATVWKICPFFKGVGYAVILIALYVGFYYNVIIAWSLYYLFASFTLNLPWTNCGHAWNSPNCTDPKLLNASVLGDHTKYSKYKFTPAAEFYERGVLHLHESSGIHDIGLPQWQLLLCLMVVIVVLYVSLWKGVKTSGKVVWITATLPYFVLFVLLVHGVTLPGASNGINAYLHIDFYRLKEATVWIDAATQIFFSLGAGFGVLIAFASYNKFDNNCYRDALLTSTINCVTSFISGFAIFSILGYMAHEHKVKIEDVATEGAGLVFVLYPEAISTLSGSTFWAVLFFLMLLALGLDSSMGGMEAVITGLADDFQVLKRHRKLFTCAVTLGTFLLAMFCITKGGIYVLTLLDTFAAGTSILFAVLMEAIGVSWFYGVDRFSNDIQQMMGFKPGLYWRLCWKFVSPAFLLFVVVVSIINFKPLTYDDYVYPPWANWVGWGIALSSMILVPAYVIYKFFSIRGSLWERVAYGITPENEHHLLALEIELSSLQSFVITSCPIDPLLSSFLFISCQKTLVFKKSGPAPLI
T1 sequence (P31652 whole entry): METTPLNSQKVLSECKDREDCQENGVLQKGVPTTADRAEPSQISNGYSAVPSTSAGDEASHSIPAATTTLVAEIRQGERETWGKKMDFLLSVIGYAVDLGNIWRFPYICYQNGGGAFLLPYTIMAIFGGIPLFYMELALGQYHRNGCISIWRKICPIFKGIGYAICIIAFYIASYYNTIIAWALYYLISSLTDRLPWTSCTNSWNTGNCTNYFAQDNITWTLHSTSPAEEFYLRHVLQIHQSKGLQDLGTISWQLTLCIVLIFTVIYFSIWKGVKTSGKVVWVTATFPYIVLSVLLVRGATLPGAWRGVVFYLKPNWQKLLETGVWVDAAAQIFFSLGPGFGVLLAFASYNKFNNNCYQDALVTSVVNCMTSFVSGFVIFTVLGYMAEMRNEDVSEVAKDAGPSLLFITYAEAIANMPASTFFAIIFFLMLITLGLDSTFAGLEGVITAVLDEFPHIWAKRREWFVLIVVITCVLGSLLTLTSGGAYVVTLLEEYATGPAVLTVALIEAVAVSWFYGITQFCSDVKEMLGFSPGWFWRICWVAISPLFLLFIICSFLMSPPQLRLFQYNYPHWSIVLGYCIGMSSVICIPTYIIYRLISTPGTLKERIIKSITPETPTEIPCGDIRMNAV

As to `CCC(O)(c1ccccc1)C(COc1ccc(Cl)cc1)CN(C)C` (stereo not drawn) [Beispiel 2.9, 2-(4-Chlorphenoxymethyl)-1-dimethylamino-3-phenyl-pentanol-(3) Hydrochlorid], the IC50 on Noradrenalin-Aufnahme stood at 68 nM; on Serotonin-Aufnahme (setting [1]), 100 nM.
On to `CCC(O)(c1ccccc1)C(COc1ccccc1)CN(C)C` (stereo not drawn) [Beispiel 2, 1-Dimethylamino-3-phenyl-2-phenoxymethyl-pentanol-(3) Hydrochlorid], for which the results for the IC50 on Noradrenalin-Aufnahme and on Serotonin-Aufnahme (setting [1]) were 11 nM and 25 nM, respectively.
For the molecule `C=CC(O)(c1ccccc1)C(COc1ccccc1)CN(C)C` (stereo not drawn) [Beispiel 2.12, l-Dimethylamino-2-phenoxymethyl-3-phenyl-pent-4-enol-(3) Hydrochlorid], the IC50 at Noradrenalin-Aufnahme was 100 nM; on Serotonin-Aufnahme (setting [1]), 69 nM.
In the case of `CN(C)CC(COc1ccc(Br)cc1)C(O)c1ccccc1` (stereo not drawn) [Beispiel 1.4, 2-(4-Bromphenoxymethyl)-1-dimethylamino-3-phenylpropanol-(3) Hydrochlorid], the IC50 is 17 nM at Noradrenalin-Aufnahme and 73 nM at Serotonin-Aufnahme (setting [1]).
As to `CC(=O)OC(c1ccccc1)C(COc1ccccc1)CN(C)C.Cl` (stereo not drawn) [Beispiel 5, 3-Acetoxy-1-dimethylamino-2-phenoxymethyl-3-phenylpropan Hydrochlorid], at Noradrenalin-Aufnahme, the “absolute Wirkstärke bei der Hemmung der Noradrenalin-Aufnahme” value is on record as 8 -fach and the IC50 was 1.7 nM. Further, the IC50 against Serotonin-Aufnahme is 400 nM.
Take `CCC(O)(c1ccccc1)C(COc1ccc(Cl)cc1)CN(C)C` (stereo not drawn) [Beispiel 2.7, 2-(4-Chlorphenoxymethyl)-1-dimethylamino-3-phenyl-pentanol-(3) Hydrochlorid]: the half-maximal inhibitory concentration (IC50) at Noradrenalin-Aufnahme turned out to be 150 nM; at Serotonin-Aufnahme (setting [1]), 3.1 nM.
Regarding `CCOC(=O)OC(c1ccccc1)C(COc1ccccc1)CN(C)C` (stereo not drawn) [Beispiel 5.3, 1-Dimethylamino-3-ethoxycarbonyloxy-2-phenoxymethyl-3-phenyl-propan Hydrochlorid], the half-inhibitory concentration (IC50) on Noradrenalin-Aufnahme worked out at 20 nM; against Serotonin-Aufnahme, 300 nM.
Turning to `CN(C)CC(COc1ccccc1)C(O)c1ccccc1` (stereo not drawn) [Beispiel 1, 1-Dimethylamino-2-phenoxymethyl-3-phenyl-propanol-(3)], the results for the IC50 on Noradrenalin-Aufnahme and at Serotonin-Aufnahme (setting [1]) were 5.2 nM and 190 nM, respectively.
`CCCC(O)(c1ccccc1)C(COc1ccccc1)CN(C)C` (stereo not drawn) [Beispiel 2.5, 1-Dimethylamino-2-phenoxymethyl-3-phenyl-hexanol-(3) Hydrochlorid]: the 50% inhibitory concentration (IC50) on Noradrenalin-Aufnahme was found to be 13 nM; at Serotonin-Aufnahme (setting [1]), 37 nM.
Take `CN(C)CC(COc1ccc(Cl)cc1)C(O)(c1ccccc1)c1ccccc1` (stereo not drawn) [Beispiel 2.3, 2-(4-Chlorphenoxymethyl)1-dimethylamino-3,3-diphenyl-propanol-(3)]: the figures for the half-maximal inhibitory concentration (IC50) on Noradrenalin-Aufnahme and on Serotonin-Aufnahme (setting [1]) were 94 nM and 26 nM, respectively.
As to `CCCC(O)(c1ccccc1)C(COc1ccc(Cl)cc1)CN(C)C` (stereo not drawn) [Beispiel 2.6, 2-(4-Chlorphenoxymethyl)-1-dimethylamino-3-phenyl-hexanol-(3) Hydrochlorid], the IC50 was 200 nM on Noradrenalin-Aufnahme and 3.6 nM on Serotonin-Aufnahme (setting [1]).
With `CN(C)CC(COc1ccccc1)C(C)(O)c1ccccc1` (stereo not drawn) [Beispiel 2.4, 1-Dimethylamino-2-phenoxymethyl-3-phenyl-butanol-(3) Hydrochlorid], the values for the IC50 on Noradrenalin-Aufnahme and at Serotonin-Aufnahme (setting [1]) were 36 nM and 66 nM, respectively.
In the same order, the values of `CN(C)CC(COc1ccc(Cl)cc1)C(C)(O)c1ccccc1` (stereo not drawn) [Beispiel 2.8, 2-(4-Chlorphenoxymethyl)-1-dimethylamino-3-phenyl-butanol-(3) Hydrochlorid] are 160 nM and 3.8 nM.
With `CN(C)CC(COc1ccc(Cl)cc1)C(O)c1ccccc1` (stereo not drawn) [Beispiel 1.2, 2-(4-Chlorphenoxymethyl)-1-dimethylamino-3-phenyl-propanol-(3)], the figures for the IC50 on Noradrenalin-Aufnahme and on Serotonin-Aufnahme (setting [1]) were 180 nM and 20 nM, respectively.
Consider `CCCCCCCCCCCCC(O)(c1ccccc1)C(COc1ccccc1)CN(C)C` (stereo not drawn) [Beispiel 2.11, 1-Dimethylamino-2-phenoxymethyl-3-phenyl-pentadecanol-(3)], for which the IC50 on Noradrenalin-Aufnahme amounted to 500 nM; at Serotonin-Aufnahme (setting [1]), 300 nM.
As to `COc1ccc(OCC2CN(C)CCC2c2ccccc2)cc1` (stereo not drawn) [Femoxetin, reference compound], the concentration for half-maximal inhibition (IC50) at Noradrenalin-Aufnahme worked out at 330 nM.
As to `CN(C)CC(COc1ccccc1)C(O)(c1ccccc1)c1ccccc1` (stereo not drawn) [Beispiel 2.2, 1-Dimethylamino-3,3-diphenyl-2-phenoxymethyl-propanol-(3)], the figures for the IC50 on Noradrenalin-Aufnahme and on Serotonin-Aufnahme (setting [1]) were 94 nM and 200 nM, respectively.
Turning to `C=CCOC(c1ccccc1)C(COc1ccccc1)CN(C)C` (stereo not drawn) [Beispiel 6, 3-Allyloxy-1-dimethylamino--2-phenoxymethyl-3-phenyl-propan], the values for the IC50 at Noradrenalin-Aufnahme and against Serotonin-Aufnahme were 17 nM and 56 nM, respectively.
Regarding `CCCCCCCCC(O)(c1ccccc1)C(COc1ccccc1)CN(C)C` (stereo not drawn) [Beispiel 2.10, 1-Dimethylamino-2-phenoxymethyl-3-phenyl-undecanol-(3)], the IC50 at Noradrenalin-Aufnahme was found to be 38 nM; on Serotonin-Aufnahme (setting [1]) it was 49 nM.
`CN(C)CC(CSc1ccccc1)C(O)c1ccccc1` (stereo not drawn) [Beispiel 1.6, 1-Dimethylamino-3-phenyl-2-thiophenoxymethyl-propanol-(3)]: at Noradrenalin-Aufnahme, the “absolute Wirkstärke bei der Hemmung der Noradrenalin-Aufnahme” value is 8 -fach and the IC50 worked out at 1.7 nM. Further, on Serotonin-Aufnahme (setting [1]), the IC50 stood at 65 nM.
For `CN(C)CC(COc1ccccc1)C(O)c1ccc(F)cc1` (stereo not drawn) [Beispiel 1.3, 1-Dimethylamino-3-(4-fluorphenyl)-2-phenoxymethyl-propanol-(3) Hydrochlorid], the IC50 at Serotonin-Aufnahme (setting [1]) amounted to 490 nM.
